# Measured values: US20060229358A1, “Pharmaceutical composition containing flavonoids” (Taipei Medical University, priority 2005, published 2006)
# Biological target: PDE5 (Cavia porcellus, UniProt H0VD23)
# Assay: Inhibition of cyclic nucleotide PDE activity (Assay I), PDE5
# Type: biochemical, guinea pig
# Settings: not given
# Description: Under a protocol approved by the Animal Care and Use Committee of Taipei Medical University, five male guinea pigs (Hartley), weighing 500-600 g, were sacrificed. The lungs (15 g) or hearts (4 g) taken therefrom were chopped into small pieces and homogenized with a glass/teflon homogenizer (Glas-Col, Terre Haute, Ind., USA) in 10 volumes of cold medium (pH 6.5) containing 20 mM Bis-Tris, 2 mM benzamidine, 2 mM EDTA, 50 mM sodium chloride, 0.1 mM phenylmethanesulfonyl fluoride (PMSF), and 1 mM dithiothreitol. At 4° C., the homogenate was centrifuged at 170 g for 15 min, and the supernatant thereof was then re-centrifuged at 40,000 g for 30 min. […] The column was washed with two bed volumes of homogenate buffer to remove unbound material, where the resin beads therein will bind with proteins, such as PDE proteins. […] And then the samples were frozen at −70° C.
# In order to eliminate possible contamination of PDE5 by PDE1, the above-collected fractions with enzyme activity was further purified on a calmodulin-agarose column. The column (1.6 cm×4 cm) was pre-equilibrated by a buffer A, which contains 20 mM Bis-tris, 1 mM dithiothreitol, 2 mM benzamidine, 50 mM NaCl, 3 mMMgCl2, 0.1 mM CaCl2, and 0.1 mM PMSF, pH 6.5. The sample (the mixture of PDE5 and PDE1), being purified by the above-mentioned column, with the CaCl2 concentration thereof adjusted to at least 2 mM previously, was loaded and allowed to be absorbed on the gel for 30 min. Then, the PDE isozymes were eluted by stepwise elution using 20 ml of buffer A with 1 M NaCl followed by 20 ml of buffer A with 1 M NaCl and with 1 mM EGTA.
# The activities of PDE1-5 in the homogenate were measured with a two-step procedure according to the method of Thompson and Appleman, using cAMP with [^3H]-cAMP or cGMP with [^3 H]-cGMP as substrates. The PDE enzyme prepared (25 μl) with 10 μl inhibitor or the solvents therefor was incubated for 30 min at 37° C. in a total assay buffer, where the final volume of the assay is amounted to 100 μl. In accordance with the features of the PDE isozymes, the assay buffer contains 50 mM Tris/HCl (pH 7.4), 3 mM MgCl2, 1 mM dithiothreitol, and 0.05% BSA, and optionally contains 1 uM cAMP with 0.2 μCi [^3H]-cAMP as a substrate alone or in the presence of 0.1 unit calmodulin with 10 μM CaCl2, or 5 μM cGMP, and 1 μM cGMP with 0.2 μCi [^3H]-cGMP as another substrate alone or in the presence of 0.1 unit calmodulin with 10 μM CaCl2.
# The PDE enzyme and the inhibitors (or their solvent) therefor were mixed and incubated on ice for 30 min previously, and then mixed with the assay buffer. The assay was initiated by transferring the mixture to a water bath at 37° C. Following the other 30 min incubation, the reaction was stopped by transferring the reaction vessel to a bath of boiling water for 3 min. After cooling on ice, 20 μl of the 1 mg/ml of Crotalus atrox venom was added to the reaction mixture, and the mixture was incubated at 37° C. for 10 min. The uncatalyzed substrates, such as cAMP, [^3H]-cAMP, cGMP, or [^3H]-cGMP were removed by the addition of 500 μl of a 1-in-1 Tris-HCl (40 mM) buffer suspension of Dowex resin (1×8-200) with incubation on ice for 30 min, since the bindings of the cyclic nucleotides and the resin. Each tube was then centrifuged for 2 min at 6000 rpm, and 100 μl of the supernatant was removed and counted by a β-counter for calculating the enzyme (PDEs) activity.
# The IC50 values of flavonoids and various reference drugs were calculated using non-linear regression analysis by the software SigmaPlot 7.0 (Sigma Chemical, St. Louis Mo., USA).
row,SMILES,IC50 [µM]
1,O=c1c(-c2ccc(O)cc2)coc2cc(O)cc(O)c12 [Genistein],73.9 ± 7.1
2,COc1cc(O)c2c(=O)c(-c3ccc(O)cc3)coc2c1 [Prunetin],> 100

# Same assay, conditions: mean ± S.E.M. (n); read-out: IC50 on phosphodiesterase isozyme 5
row,SMILES,IC50 [µM]
1,O=C1CC(c2ccc(O)c(O)c2)Oc2cc(O)cc(O)c21 (stereo not drawn) [Eriodictyol],> 100
2,O=c1c(O)c(-c2ccc(O)c(O)c2)oc2cc(O)cc(O)c12 [Quercetin],> 100
3,O=c1cc(-c2ccc(O)c(O)c2)oc2cc(O[C@@H]3O[C@H](CO)[C@@H](O)[C@H](O)[C@H]3O)cc(O)c12 [Luteolin-7-glucoside],> 100
4,COc1ccc(-c2coc3cc(O)cc(O)c3c2=O)cc1 [Biochanin A],> 100
5,O=c1cc(-c2ccc(O)c(O)c2)oc2cc(O)cc(O)c12 [Luteolin],19.3 ± 3.2
6,O=c1cc(-c2ccccc2)oc2cc(O)cc(O)c12 [Chrysin],> 100
7,COc1ccc(C2CC(=O)c3c(O)cc(O)cc3O2)cc1O (stereo not drawn) [Hesperetin],> 100
8,O=c1c(O)c(-c2cc(O)c(O)c(O)c2)oc2cc(O)cc(O)c12 [Myricetin],> 100
9,O=c1c(-c2ccc(O)cc2)coc2cc(O)ccc12 [Daidzein],> 100
10,O=c1cc(-c2ccc(O)cc2)oc2cc(O)cc(O)c12 [Apigenin],> 100
